Experimental data from patent US20220170944A1, “MATERIALS AND METHODS FOR IDENTIFYING AND TREATING EOSINOPHILIC DISORDERS” (The Regents of the University of California, priority 2019, published 2022).

Legend:
[1] = cited from earlier work
[2] = test system: EoE fibroblasts and esophageal epithelial cells; test: COMP expression in cells treated in vitro with recombinant TGFb1; format: cell-based, human; details: p<0.0001
Description: Primary esophageal fibroblasts from EoE patients were used. The fibroblast were treated in vitro with recombinant TGFb1. […] Biopsies were scored using a standardized histology score. […] COMP expression correlated with fibrosis (r=[…]), basal zone hyperplasia (r=0.59, p<0.0001), and eosinophilia (r=0.54, p<0.0001).

In the case of `CCc1ccc(CCOc2ccc(CC3SC(=O)NC3=O)cc2)nc1` (centres unmarked) [Pioglitazone, pioglitazone], the “tolerability / drug-related adverse events compared to placebo” value [1] is given as “no major drug-related adverse events”.

With “TGFb1: recombinant TGFb1, the canonical pro-fibrotic molecule transforming growth factor-beta-1” the COMP expression induction [2] was “up to 6000 fold”.
